From patent EP1247803A2, “Indolinone compounds suitable for modulation of protein kinases” (Sugen, Inc., priority 1996, dated 1998) come the findings set out here.

Assay [1] addresses T1, EGFR (Homo sapiens, UniProt P00533).
T1 construct: Add 7 ug A431 cell lysate per well (EGFR source); endogenous in cells; host or cells: A431
As to the kind of experiment: EGFR ELISA assay (in vitro kinase activity, EGFR captured from A431 cell lysate). Type of assay: biochemical. Set-up: concentration or dose not given beside the values. An outline of the steps: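 Receptor autophosphorylation was read by ELISA: anti-phosphotyrosine serum and an HRP-linked secondary with ABTS substrate, absorbance at 410 nm (reference 630 nm). The reaction ran 5 min with 3 µM ATP and 5 mM MnCl2 and was quenched by 20 mM EDTA. Compounds were first incubated 30 min with antibody-captured EGFR from A431 cell lysate.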
On the technique in general: ELISA stands for enzyme-linked immunosorbent assay.

Assay [2] relates to MET. As to the kind of experiment: MET biochemical kinase assay. Set-up: species or system human; concentration or dose not given beside the values. An outline of the steps: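 Plates coated with anti-rabbit Fc bind a rabbit anti-MET antibody that captures receptor from cell lysates; unbound protein is washed off before compound and ATP-containing kinase buffer go in.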

T1 sequence (P00533 25-1210): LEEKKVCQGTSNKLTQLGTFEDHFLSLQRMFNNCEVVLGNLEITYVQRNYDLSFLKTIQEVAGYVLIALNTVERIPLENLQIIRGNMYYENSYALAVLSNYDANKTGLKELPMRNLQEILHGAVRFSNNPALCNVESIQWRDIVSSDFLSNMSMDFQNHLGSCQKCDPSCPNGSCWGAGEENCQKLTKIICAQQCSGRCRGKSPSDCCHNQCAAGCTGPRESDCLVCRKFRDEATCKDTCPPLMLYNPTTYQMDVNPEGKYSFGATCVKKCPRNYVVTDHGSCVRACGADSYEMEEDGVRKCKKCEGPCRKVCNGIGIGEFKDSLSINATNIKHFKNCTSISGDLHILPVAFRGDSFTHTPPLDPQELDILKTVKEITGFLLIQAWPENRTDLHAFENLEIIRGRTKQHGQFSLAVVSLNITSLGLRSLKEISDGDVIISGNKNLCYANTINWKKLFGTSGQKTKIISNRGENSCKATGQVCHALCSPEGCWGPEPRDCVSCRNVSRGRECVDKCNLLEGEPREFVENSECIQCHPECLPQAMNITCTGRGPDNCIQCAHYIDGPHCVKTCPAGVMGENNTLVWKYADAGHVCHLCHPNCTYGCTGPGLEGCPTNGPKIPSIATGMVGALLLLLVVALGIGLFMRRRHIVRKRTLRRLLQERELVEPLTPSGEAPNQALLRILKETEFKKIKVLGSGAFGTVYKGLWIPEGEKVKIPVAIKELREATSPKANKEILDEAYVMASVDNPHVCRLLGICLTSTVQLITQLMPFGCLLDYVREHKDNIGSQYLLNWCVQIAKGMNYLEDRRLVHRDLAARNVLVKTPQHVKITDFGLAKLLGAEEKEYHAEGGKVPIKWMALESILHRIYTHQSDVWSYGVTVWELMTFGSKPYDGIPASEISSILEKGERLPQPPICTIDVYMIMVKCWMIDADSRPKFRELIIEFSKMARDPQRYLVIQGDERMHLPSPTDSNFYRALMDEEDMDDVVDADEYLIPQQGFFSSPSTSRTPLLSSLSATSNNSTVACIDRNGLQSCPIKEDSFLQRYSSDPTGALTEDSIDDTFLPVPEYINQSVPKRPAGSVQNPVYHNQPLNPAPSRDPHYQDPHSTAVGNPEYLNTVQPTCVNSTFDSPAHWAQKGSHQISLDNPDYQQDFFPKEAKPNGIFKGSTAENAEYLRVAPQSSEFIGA

On to `CCOc1ccccc1C=C1C(=O)Nc2c(Br)cc(Br)cc21` [10717/A02], for which the “Biochem EGFR %Inhibition” value in assay [1] is reported as 24.3%. Also, in assay [2], the “Met Kinase % Inhibition” value was 46.1%.
On the same counts, the results for `Cc1c(Br)ccc2c1C(=Cc1cccn1C)C(=O)N2` [10717/C04] are 14.4% and 25.0%.
In the same order, the values of `Cc1c(Br)ccc2c1C(=Cc1ccc(F)cc1)C(=O)N2` [10717/C05] are 13.1% and 44.6%.
On the same counts, the results for `Cc1c(Br)ccc2c1C(=Cc1c[nH]c3ccccc13)C(=O)N2` [10717/C06] are -49.7% and 44.1%.
Turning to `Cc1ccc(C=C2C(=O)Nc3ccc(Br)c(C)c32)s1` [10717/C07], the “Biochem EGFR %Inhibition” value in assay [1] was determined as 28.7%. Also, the “Met Kinase % Inhibition” value in assay [2] is 16.5%.
On the same counts, the results for `Cc1c(Br)ccc2c1C(=Cc1ccc(Br)cc1)C(=O)N2` [10717/C08] are 24.3% and 27.3%.
In the same order, the values of `Cc1c(Br)ccc2c1C(=Cc1ccc[nH]1)C(=O)N2` [10717/C09] are 8.1% and 47.7%.
On the same counts, the results for `COc1cccc(O)c1C=C1C(=O)Nc2ccc(Br)c(C)c21` [10717/C10] are 17.5% and 22.8%.
Turning to `Cc1[nH]c(C=C2C(=O)Nc3ccc(Br)c(C)c32)c(Br)c1Br` [10717/C11], the “Biochem EGFR %Inhibition” value in assay [1] was 67.3%. For the same compound, the “Met Kinase % Inhibition” value in assay [2] is recorded as 71.8%.
On to `CNS(=O)(=O)c1ccc2c(c1)C(=Cc1ccc(OC)c(OC)c1)C(=O)N2` [10720/D04], for which the “Biochem EGFR %Inhibition” value in assay [1] is given as -7.7%. Besides, the “Met Kinase % Inhibition” value in assay [2] is recorded as 23.6%.
For `CNS(=O)(=O)c1ccc2c(c1)C(=Cc1ccccc1O)C(=O)N2` [10720/D05], the “Biochem EGFR %Inhibition” value in assay [1] is on record as -24.1%. The “Met Kinase % Inhibition” value in assay [2] is reported as 9.8%.
Consider `CNS(=O)(=O)c1ccc2c(c1)C(=Cc1ccccc1)C(=O)N2` [10720/D06], for which the “Biochem EGFR %Inhibition” value in assay [1] is reported as -35.0%. For the same compound, in assay [2], the “Met Kinase % Inhibition” value is reported as 31.8%.
On the same counts, the results for `CNS(=O)(=O)c1ccc2c(c1)C(=Cc1ccc(SC)s1)C(=O)N2` [10720/D07] are 14.8% and 36.2%.
On the same counts, the results for `CNS(=O)(=O)c1ccc2c(c1)C(=Cc1c(C)cc(O)cc1O)C(=O)N2` [10720/D08] are -13.3% and 42.1%.
As to `CCOc1cc(C=C2C(=O)Nc3ccc(S(=O)(=O)NC)cc32)ccc1O` [10720/D09], the “Biochem EGFR %Inhibition” value in assay [1] came to 2.4%. Besides, in assay [2], the “Met Kinase % Inhibition” value came to 62.8%.
`CNS(=O)(=O)c1ccc2c(c1)C(=Cc1cc(OC)ccc1O)C(=O)N2` [10720/D10]: in assay [1], the “Biochem EGFR %Inhibition” value was -10.2%. Also, the “Met Kinase % Inhibition” value in assay [2] was 51.0%.
Turning to `CNS(=O)(=O)c1ccc2c(c1)C(=Cc1ncc[nH]1)C(=O)N2` [10720/D11], the “Biochem EGFR %Inhibition” value in assay [1] is -5.5%. The “Met Kinase % Inhibition” value in assay [2] was determined as 23.9%.
Regarding `O=C1Nc2ccc(S(=O)(=O)Nc3ccc(C(F)(F)F)cc3)cc2C1=Cc1c(F)cc(F)cc1F` [10720/E02], the “Biochem EGFR %Inhibition” value in assay [1] was 25.2%. The “Met Kinase % Inhibition” value in assay [2] is 18.0%.
In the same order, the values of `COc1cc(O)ccc1C=C1C(=O)Nc2ccc(S(=O)(=O)Nc3ccc(C(F)(F)F)cc3)cc21` [10720/E03] are 54.4% and 54.9%.
As to `COc1ccc(C=C2C(=O)Nc3ccc(S(=O)(=O)Nc4ccc(C(F)(F)F)cc4)cc32)cc1OC` [10720/E04], the “Biochem EGFR %Inhibition” value in assay [1] is on record as -2.7%. Also, in assay [2], the “Met Kinase % Inhibition” value worked out at 46.7%.
`O=C1Nc2ccc(S(=O)(=O)Nc3ccc(C(F)(F)F)cc3)cc2C1=Cc1ccccc1O` [10720/E05]: the “Biochem EGFR %Inhibition” value in assay [1] is reported as 40.7%. Besides, the “Met Kinase % Inhibition” value in assay [2] turned out to be 55.4%.
In the same order, the values of `O=C1Nc2ccc(S(=O)(=O)Nc3ccc(C(F)(F)F)cc3)cc2C1=Cc1ccccc1` [10720/E06] are 30.1% and 33.1%.
On the same counts, the results for `CSc1ccc(C=C2C(=O)Nc3ccc(S(=O)(=O)Nc4ccc(C(F)(F)F)cc4)cc32)s1` [10720/E07] are 55.1% and 30.3%.
In the same order, the values of `Cc1cc(O)cc(O)c1C=C1C(=O)Nc2ccc(S(=O)(=O)Nc3ccc(C(F)(F)F)cc3)cc21` [10720/E08] are 37.4% and 55.1%.
On to `CCOc1cc(C=C2C(=O)Nc3ccc(S(=O)(=O)Nc4ccc(C(F)(F)F)cc4)cc32)ccc1O` [10720/E09], for which, in assay [1], the “Biochem EGFR %Inhibition” value was determined as 56.4%. In addition, in assay [2], the “Met Kinase % Inhibition” value is given as 43.4%.
On to `COc1ccc(O)c(C=C2C(=O)Nc3ccc(S(=O)(=O)Nc4ccc(C(F)(F)F)cc4)cc32)c1` [10720/E10], for which the “Biochem EGFR %Inhibition” value in assay [1] turned out to be 49.1%. Besides, the “Met Kinase % Inhibition” value in assay [2] was 23.1%.
On the same counts, the results for `O=C1Nc2ccc(S(=O)(=O)Nc3ccc(C(F)(F)F)cc3)cc2C1=Cc1ncc[nH]1` [10720/E11] are -65.5% and -10.4%.
In the same order, the values of `O=C1Nc2ccc(S(=O)(=O)N3CCOCC3)cc2C1=Cc1c(F)cc(F)cc1F` [10720/F02] are -19.3% and 17.8%.
On the same counts, the results for `COc1cc(O)ccc1C=C1C(=O)Nc2ccc(S(=O)(=O)N3CCOCC3)cc21` [10720/F03] are 7.1% and 44.1%.
Turning to `COc1ccc(C=C2C(=O)Nc3ccc(S(=O)(=O)N4CCOCC4)cc32)cc1OC` [10720/F04], the “Biochem EGFR %Inhibition” value in assay [1] was -11.7%. Moreover, the “Met Kinase % Inhibition” value in assay [2] came out at 43.1%.
In the same order, the values of `O=C1Nc2ccc(S(=O)(=O)N3CCOCC3)cc2C1=Cc1ccccc1O` [10720/F05] are -14.2% and 39.8%.
On the same counts, the results for `O=C1Nc2ccc(S(=O)(=O)N3CCOCC3)cc2C1=Cc1ccccc1` [10720/F06] are -24.3% and 21.9%.
For the compound `CSc1ccc(C=C2C(=O)Nc3ccc(S(=O)(=O)N4CCOCC4)cc32)s1` [10720/F07], the “Biochem EGFR %Inhibition” value in assay [1] is recorded as 35.2%. For the same compound, the “Met Kinase % Inhibition” value in assay [2] stood at 64.6%.
Consider `Cc1cc(O)cc(O)c1C=C1C(=O)Nc2ccc(S(=O)(=O)N3CCOCC3)cc21` [10720/F08], for which the “Biochem EGFR %Inhibition” value in assay [1] is recorded as -39.6%. Besides, the “Met Kinase % Inhibition” value in assay [2] is recorded as 36.2%.
`CCOc1cc(C=C2C(=O)Nc3ccc(S(=O)(=O)N4CCOCC4)cc32)ccc1O` [10720/F09]: the “Biochem EGFR %Inhibition” value in assay [1] was determined as 6.4%. The “Met Kinase % Inhibition” value in assay [2] was determined as 49.2%.
On the same counts, the results for `COc1ccc(O)c(C=C2C(=O)Nc3ccc(S(=O)(=O)N4CCOCC4)cc32)c1` [10720/F10] are 6.0% and 42.8%.
Regarding `O=C1Nc2ccc(S(=O)(=O)N3CCOCC3)cc2C1=Cc1ncc[nH]1` [10720/F11], in assay [1], the “Biochem EGFR %Inhibition” value is reported as -61.1%. Besides, in assay [2], the “Met Kinase % Inhibition” value stood at 1.6%.
In the same order, the values of `O=C1Nc2ccc(CCCl)cc2C1=Cc1c(F)cc(F)cc1F` [10720/G02] are -13.1% and 20.1%.
Regarding `COc1cc(O)ccc1C=C1C(=O)Nc2ccc(CCCl)cc21` [10720/G03], the “Biochem EGFR %Inhibition” value in assay [1] was found to be 10.0%. Further, in assay [2], the “Met Kinase % Inhibition” value is 42.1%.
In the same order, the values of `COc1ccc(C=C2C(=O)Nc3ccc(CCCl)cc32)cc1OC` [10720/G04] are -34.1% and 5.0%.
In the case of `O=C1Nc2ccc(CCCl)cc2C1=Cc1ccccc1O` [10720/G05], in assay [1], the “Biochem EGFR %Inhibition” value was 27.0%. Further, the “Met Kinase % Inhibition” value in assay [2] is given as 37.0%.
As to `O=C1Nc2ccc(CCCl)cc2C1=Cc1ccccc1` [10720/G06], in assay [1], the “Biochem EGFR %Inhibition” value is listed as -10.4%. In assay [2], the “Met Kinase % Inhibition” value was 21.6%.
On to `CSc1ccc(C=C2C(=O)Nc3ccc(CCCl)cc32)s1` [10720/G07], for which the “Biochem EGFR %Inhibition” value in assay [1] is recorded as -8.0%. For the same compound, in assay [2], the “Met Kinase % Inhibition” value amounted to 12.9%.
For the compound `Cc1cc(O)cc(O)c1C=C1C(=O)Nc2ccc(CCCl)cc21` [10720/G08], the “Biochem EGFR %Inhibition” value in assay [1] is -9.5%. The “Met Kinase % Inhibition” value in assay [2] turned out to be 26.7%.
In the same order, the values of `CCOc1cc(C=C2C(=O)Nc3ccc(CCCl)cc32)ccc1O` [10720/G09] are -19.7% and 49.5%.
For the compound `COc1ccc(O)c(C=C2C(=O)Nc3ccc(CCCl)cc32)c1` [10720/G10], the “Biochem EGFR %Inhibition” value in assay [1] is reported as 20.4%. In addition, the “Met Kinase % Inhibition” value in assay [2] was determined as 55.9%.
Turning to `O=C1Nc2ccc(CCCl)cc2C1=Cc1ncc[nH]1` [10720/G11], the “Biochem EGFR %Inhibition” value in assay [1] is -56.7%. The “Met Kinase % Inhibition” value in assay [2] is recorded as 36.2%.
In the same order, the values of `Cn1c(C=C2C(=O)Nc3c(Br)cc(Br)cc32)nc2ccccc21` [10721/A02] are 17.8% and 41.1%.
In the case of `Cn1cc(Cl)c(C=C2C(=O)Nc3c(Br)cc(Br)cc32)n1` [10721/A03], the “Biochem EGFR %Inhibition” value in assay [1] worked out at 25.5%. For the same compound, the “Met Kinase % Inhibition” value in assay [2] is given as 56.2%.
For `Cc1cc(C=C2C(=O)Nc3c(Br)cc(Br)cc32)sc1C` [10721/A04], the “Biochem EGFR %Inhibition” value in assay [1] is given as 59.0%. Besides, the “Met Kinase % Inhibition” value in assay [2] was found to be 85.0%.
On the same counts, the results for `O=C1Nc2c(Br)cc(Br)cc2C1=Cc1cc2c([nH]1)CCCC2` [10721/A05] are 41.4% and 52.9%.
In the same order, the values of `O=C1Nc2c(Br)cc(Br)cc2C1=Cc1cc([N+](=O)[O-])cc(CCl)c1O` [10721/A06] are 32.7% and 81.3%.
